Source: ChEMBL document CHEMBL1201862, “PubChem BioAssay data set” (2004)
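Growth conditions: 96-well plates. Treatment: test compound, 48 hours, 5 concentrations. Analysis: linear interpolation between bracketing concentrations; unreached endpoints set to highest concentration. Abbreviation: GI50, concentration required for 50% inhibition of growth.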 The source made the active and inactive calls. No stated cut-off is given here; in the data, active = GI50 up to about 1.1 µM and inactive = higher.

Tests used:
Test in all cases: DTP human tumour cell line panel, 48 h
CAKI-1 = test system: CAKI-1
HOP-92 = test system: HOP-92
UACC-62 = test system: UACC-62
U-251 = test system: U-251
DMS-114 = test system: DMS-114
Malme-3M = test system: Malme-3M
A549 = test system: A549
SK-MEL-5 = test system: SK-MEL-5
HL-60 = test system: HL-60
UO-31 = test system: UO-31
NCI-H226 = test system: NCI-H226
NCI/ADR-RES = test system: NCI/ADR-RES
HCC 2998 = test system: HCC 2998
RXF 393 = test system: RXF 393
NCI-H460 = test system: NCI-H460
HCT-15 = test system: HCT-15
EKVX = test system: EKVX
SN12C = test system: SN12C
M14 = test system: M14
ACHN = test system: ACHN

Compound | GI50 (CAKI-1) | GI50 (HOP-92) | GI50 (UACC-62) | GI50 (U-251) | GI50 (DMS-114) | GI50 (Malme-3M) | GI50 (A549) | GI50 (SK-MEL-5) | GI50 (HL-60) | GI50 (UO-31) | GI50 (NCI-H226) | GI50 (NCI/ADR-RES) | GI50 (HCC 2998) | GI50 (RXF 393) | GI50 (NCI-H460) | GI50 (HCT-15) | GI50 (EKVX) | GI50 (SN12C) | GI50 (M14) | GI50 (ACHN)
Cc1c2cnccc2c(C)c2c1c1ccccc1n2CC1CO1 (configuration not stated) | 1.34 µM (inactive) | 1.81 µM (inactive) | 1.63 µM (inactive) | 1.6 µM (inactive) | 0.82 µM (active) | 1.75 µM (inactive) | 1.51 µM (inactive) | 1.1 µM (active) | 0.0283 µM (active) | 1.42 µM (inactive) | 1.76 µM (inactive) | 0.826 µM (active) | 1.18 µM (inactive) | 0.427 µM (active) | 0.454 µM (active) | 1.54 µM | 0.687 µM (active) | 0.174 µM (active) | – | –
CC(=O)NNc1nc(C)c(C(=O)NNC(=O)C(=O)Nc2ccccc2C#N)s1 | > 100 µM (inactive) | > 100 µM (inactive) | > 100 µM (inactive) | > 100 µM (inactive) | > 100 µM (inactive) | > 100 µM (inactive) | > 100 µM (inactive) | > 100 µM (inactive) | > 100 µM (inactive) | > 100 µM (inactive) | > 100 µM (inactive) | – | > 100 µM (inactive) | > 100 µM (inactive) | > 100 µM (inactive) | > 100 µM | > 100 µM (inactive) | > 100 µM (inactive) | > 100 µM (inactive) | > 100 µM (inactive)
COC(=O)c1cccc(N[C@@H]2c3cc4c(cc3C(c3cc(OC)c(O)c(OC)c3)[C@H]3C(=O)OCC32)OCO4)c1 (some centres not stated) | 0.321 µM (active) | 1.06 µM (active) | 0.729 µM (active) | 1.05 µM (active) | 0.568 µM (active) | 2.33 µM (inactive) | 0.153 µM (active) | 1.11 µM (active) | 0.149 µM (active) | 0.718 µM (active) | 0.662 µM (active) | 0.468 µM (active) | 2.19 µM (inactive) | 1.33 µM (inactive) | 0.0351 µM (active) | 1.08 µM | 4.03 µM (inactive) | 1.45 µM (inactive) | – | –
O=C1C(Br)=CC2([N+](=O)[O-])CCNC3=C(C4=NCCc5c[nH]c(c54)C3=O)C2=C1Br (configuration not stated) | 1.49 µM (inactive) | 0.811 µM (active) | 1.72 µM (inactive) | 1.51 µM (inactive) | 0.163 µM (active) | – | 3 µM (inactive) | 0.589 µM (active) | 0.206 µM (active) | 9.59 µM (inactive) | 2.38 µM (inactive) | 0.128 µM (active) | 2.62 µM (inactive) | 2.39 µM (inactive) | 3.39 µM (inactive) | 0.796 µM | 2.33 µM (inactive) | 1.78 µM (inactive) | – | –
Cc1nc2ccccc2c(=O)n1Nc1ccc(C(=O)O)cc1 | > 100 µM (inactive) | > 100 µM (inactive) | > 100 µM (inactive) | > 100 µM (inactive) | > 100 µM (inactive) | > 100 µM (inactive) | > 100 µM (inactive) | > 100 µM (inactive) | > 100 µM (inactive) | > 100 µM (inactive) | > 100 µM (inactive) | > 100 µM (inactive) | > 100 µM (inactive) | > 100 µM (inactive) | > 100 µM (inactive) | > 100 µM | > 100 µM (inactive) | > 100 µM (inactive) | – | –
c1ccc2c3c(ccc2c1)-c1[nH]ncc1CCO3 | 33.4 µM (inactive) | 27.5 µM (inactive) | 29.9 µM (inactive) | 18.4 µM (inactive) | 32.7 µM (inactive) | 45.7 µM (inactive) | 37 µM (inactive) | > 46.9 µM (inactive) | 14.6 µM (inactive) | 25.6 µM (inactive) | – | 38.2 µM (inactive) | 35.6 µM (inactive) | 33.3 µM (inactive) | 25.6 µM (inactive) | 20.5 µM | 13.6 µM (inactive) | 29.2 µM (inactive) | – | –
